# Like-named read-outs stand apart in the source and are kept apart here.
# Legend:
# hyperuricemic mice = assay: Action of lowering serum uric acid levels for hyperuricemic mice (potassium oxonate model); format: in vivo, BALBc mice; conditions: 1 mg/kg orally; FIG. 2
# Protocol: As to the animals used, male 7-week old BALBc mice were purchased from CLEA Japan, Inc., and subjected to an experiment after a one-week period of conditioning. The animals were bred in a breeding room with air-conditioning facilities (temperature: 23.5°±1.0° C., humidity: 55±10 RH %, the number of ventilation: 12 to 15 times/hour, illuminated: from 7:00 to 19:00 each day). During the period of conditioning, the mice were allowed to take a commercially available feed (CE-2, manufactured by CLEA Japan, Inc.) and distilled water ad libitum.
# Oxonic acid is a substance that raises a blood uric acid level by inhibiting a urikase, a metabolic enzyme for uric acid. In view of the above, potassium oxonate (PO) was administered, thereby generating hyperuricemic model animals (see, Planta Med 2009; 75:302-306). Studies were made on the following 6 groups:
# In all the groups that include PO administration, PO previously suspended in a 0.5% aqueous CMC-Na solution at 250 mg/kg was administered, and Normal Group was administered with a 0.5% aqueous CMC-Na solution, each being administered intraperitoneally. […] After 2 hours from the administration with PO, the blood was collected from the abdominal vena cava under anesthesia. After blood removal, the liver was harvested. The collected blood was allowed to stand at room temperature for 45 minutes, and centrifuged at 8,000 rpm for 10 minutes to recover sera. Here, the sera and the liver were preserved at −80° C. until the measurements were carried out.
# The serum uric acid level was measured using 7180 Clinical Analyzer (manufactured by Hitachi Technologies).
# The actions of lowering serum uric acid levels of soybean peptide heat-treated products were studied using hyperuricemic model animals, in the same manner as in Test Example 2. Concretely, the animals used were furnished in the same manner as in Test Example 2, and studies were made on the following 5 groups.
# For each of the above-mentioned groups, the administration and the blood collection were carried out in the same manner as in Test Example 2 to measure a serum uric acid level. […]
# Here, the heat-treated product of the soybean peptide obtained by dissolving a soybean peptide (Hinute AM, manufactured by FUJI OIL, CO., LTD.) in distilled water in a concentration of 200 mg/mL, heating to 132° C. for 3 hours, and lyophilizing the heated mixture was used. The content of the cyclic dipeptide of the soybean peptide heat-treated product was measured according to LC-MS/MS under the following conditions. […]
# xanthine oxidase (XO) = assay: In vitro xanthine oxidase (XO) inhibiting action; format: biochemical; conditions: for IC50: PBS pH 7.5, xanthine substrate, absorbance at 295 nm after 30 minutes, mean±standard error; for Inhibition Rate (%) at Concentration of 100 μM: Table 2, XO inhibition at 100 μM; for action of inhibiting a xanthine oxidase (in words): summary of Tables 1 to 3
# Protocol: The in vitro xanthine oxidase (XO) inhibiting action was studied on 210 kinds of cyclic dipeptides, linear dipeptides Tyr-Gly and Gly-Tyr, and an amino acid Tyr. […] Thereafter, 20 μL of a 250 μM xanthine solution previously dissolved in the PBS was added thereto, and the absorbance after 30 minutes was measured using a spectrophotometer (Synegy HT, manufactured by Bio Tek). The XO inhibition rate (%) at each concentration was calculated by the following calculation formula, to obtain activities of inhibiting XO (IC50 values).
# Solubility in water = format: physicochemical; conditions: Table 5; for Solubility in Water: distilled water, 25° C., ultrasonication 30 minutes, visual examination, tested at 5, 1, 0.1, 0.01 mM, insoluble = not dissolved at 0.01 mM
# Protocol: Concretely, each compound was added to distilled water (manufactured by Otsuka Pharmaceutical Co., Ltd.) at an ambient temperature (25° C.) so as to have a final concentration of 5 mM, and the mixture was stirred under ultrasonication for 30 minutes to dissolve. […] However, none of the compounds dissolved, so that distilled water was further added thereto so as to have a final concentration of 0.01 mM, and the mixture was stirred under ultrasonication for 30 minutes, but still no compounds dissolved.
# [1] = Table 3, read-out: IC50 (Activity of Inhibiting XO of Phe-Containing Cyclic Dipeptides)
# [2] = Table 1, read-out: IC50 (Activity of Inhibiting XO of Tyr-Containing Cyclic Dipeptides)
Molecule,IC50 (xanthine oxidase (XO); [1]) [µM],Solubility in Water (Solubility in water),also measured
"Oc1ncnc2[nH]ncc12 [Allopurinol, reference compound]",–,–,serum uric acid level vs PO Group (hyperuricemic mice): significant difference in effects on the PO Group
"CC1NC(=O)C(Cc2ccccc2)NC1=O (centres unmarked) [Cyclo(Ala-Phe), reference compound]",> 100,–,–
"CC1NC(=O)C(Cc2ccc(O)cc2)NC1=O (centres unmarked) [Cyclo(Ala-Tyr), cycloalanyltyrosine]",–,insoluble,Inhibition Rate (%) at Concentration of 100 μM (xanthine oxidase (XO)): 8.3%
"N=C(N)NCCCC1NC(=O)C(Cc2ccccc2)NC1=O (centres unmarked) [Cyclo(Arg-Phe), reference compound]",> 300,–,–
"N=C(N)NCCCC1NC(=O)C(Cc2ccc(O)cc2)NC1=O (centres unmarked) [Cyclo(Arg-Tyr), cycloarginyltyrosine]",–,5000 µM,IC50 (xanthine oxidase (XO); [2]): 211 µM; solubility in water (in words) (Solubility in water): high solubility in water
"NC(=O)CC1NC(=O)C(Cc2ccccc2)NC1=O (centres unmarked) [Cyclo(Asn-Phe), reference compound]",> 300,–,–
"NC(=O)C[C@@H]1NC(=O)[C@H](Cc2ccc(O)cc2)NC1=O [Cyclo(Asn-Tyr), cycloasparaginyltyrosine]",–,1000 µM,IC50 (xanthine oxidase (XO); [2]): 113 µM; solubility in water (in words) (Solubility in water): high solubility in water
"O=C(O)CC1NC(=O)C(Cc2ccccc2)NC1=O (centres unmarked) [Cyclo(Asp-Phe), reference compound]",> 300,–,–
"O=C(O)C[C@@H]1NC(=O)[C@H](Cc2ccc(O)cc2)NC1=O [Cyclo(Asp-Tyr), cycloaspartyltyrosine]",–,5000 µM,IC50 (xanthine oxidase (XO); [2]): 172 µM; solubility in water (in words) (Solubility in water): high solubility in water
"NC(=O)CCC1NC(=O)C(Cc2ccccc2)NC1=O (centres unmarked) [Cyclo(Gln-Phe), reference compound]",> 300,–,–
"NC(=O)CC[C@@H]1NC(=O)[C@H](Cc2ccc(O)cc2)NC1=O [Cyclo(Gln-Tyr), cycloglutaminyltyrosine]",–,1000 µM,Inhibition Rate (%) at Concentration of 100 μM (xanthine oxidase (XO)): 42.6%; solubility in water (in words) (Solubility in water): high solubility in water
"O=C(O)CCC1NC(=O)C(Cc2ccccc2)NC1=O (centres unmarked) [Cyclo(Glu-Phe), reference compound]",> 100,–,–
"O=C(O)CC[C@@H]1NC(=O)[C@H](Cc2ccc(O)cc2)NC1=O [Cyclo(Glu-Tyr), cycloglutamyltyrosine]",–,5000 µM,Inhibition Rate (%) at Concentration of 100 μM (xanthine oxidase (XO)): 0.4%; solubility in water (in words) (Solubility in water): high solubility in water
"O=C1NC(Cc2cnc[nH]2)C(=O)NC1Cc1ccccc1 (centres unmarked) [Cyclo(His-Phe), reference compound]",> 100,–,–
"O=C1N[C@@H](Cc2c[nH]cn2)C(=O)N[C@H]1Cc1ccc(O)cc1 [Cyclo(His-Tyr), cyclohistidyltyrosine]",–,1000 µM,Inhibition Rate (%) at Concentration of 100 μM (xanthine oxidase (XO)): 3.2%; solubility in water (in words) (Solubility in water): high solubility in water
"CCC(C)C1NC(=O)C(Cc2ccccc2)NC1=O (centres unmarked) [Cyclo(Ile-Phe), reference compound]",> 100,–,–
"CCC(C)C1NC(=O)C(Cc2ccc(O)cc2)NC1=O (centres unmarked) [Cyclo(Ile-Tyr), cycloisoleucyltyrosine]",–,1000 µM,IC50 (xanthine oxidase (XO); [2]): 86.7 ± 2.8 µM; solubility in water (in words) (Solubility in water): high solubility in water
"CC(C)CC1NC(=O)C(Cc2ccccc2)NC1=O (centres unmarked) [Cyclo(Leu-Phe), reference compound]",> 100,–,–
"NCCCCC1NC(=O)C(Cc2ccccc2)NC1=O (centres unmarked) [Cyclo(Lys-Phe), reference compound]",> 300,–,–

Molecule,IC50 (xanthine oxidase (XO); [1]) [µM],Solubility in Water (Solubility in water),also measured
"NCCCC[C@@H]1NC(=O)[C@H](Cc2ccc(O)cc2)NC1=O [Cyclo(Lys-Tyr), cyclolysyltyrosine]",–,5000 µM,Inhibition Rate (%) at Concentration of 100 μM (xanthine oxidase (XO)): 25.7%; solubility in water (in words) (Solubility in water): high solubility in water
"CSCCC1NC(=O)C(Cc2ccccc2)NC1=O (centres unmarked) [Cyclo(Met-Phe), reference compound]",> 100,–,–
"CSCCC1NC(=O)C(Cc2ccc(O)cc2)NC1=O (centres unmarked) [Cyclo(Met-Tyr), cyclomethionyltyrosine]",–,5000 µM,IC50 (xanthine oxidase (XO); [2]): 56.4 ± 2.9 µM; solubility in water (in words) (Solubility in water): high solubility in water
"O=C1NC(Cc2ccccc2)C(=O)NC1CS (centres unmarked) [Cyclo(Phe-Cys), reference compound]",133 ± 25.2,–,–
"O=C1CNC(=O)C(Cc2ccccc2)N1 (centres unmarked) [Cyclo(Phe-Gly), reference compound]",> 100,–,–
"O=C1NC(Cc2ccccc2)C(=O)NC1Cc1ccccc1 (centres unmarked) [Cyclo(Phe-Phe), reference compound]",> 100,–,–
"O=C1N[C@@H](Cc2ccc(O)cc2)C(=O)N[C@H]1Cc1ccccc1 [Cyclo(Phe-Tyr), cyclophenylalanyltyrosine]",22.2 ± 0.8,insoluble,IC50 (xanthine oxidase (XO); [2]): 22.2 ± 0.8 µM; action of inhibiting a xanthine oxidase (in words) (xanthine oxidase (XO)): high action of inhibiting a xanthine oxidase
"O=C1NC(Cc2ccccc2)C(=O)N2CCCC12 (centres unmarked) [Cyclo(Pro-Phe), reference compound]",> 100,–,–
"O=C1N[C@@H](Cc2ccc(O)cc2)C(=O)N2CCC[C@@H]12 [Cyclo(Pro-Tyr), cycloprolyltyrosine]",–,1000 µM,Inhibition Rate (%) at Concentration of 100 μM (xanthine oxidase (XO)): 2.3%; solubility in water (in words) (Solubility in water): high solubility in water
"O=C1NC(Cc2ccccc2)C(=O)NC1CO (centres unmarked) [Cyclo(Ser-Phe), reference compound]",> 300,–,–
"O=C1NC(Cc2ccc(O)cc2)C(=O)NC1CO (centres unmarked) [Cyclo(Ser-Tyr), cycloseryltyrosine]",–,insoluble,IC50 (xanthine oxidase (XO); [2]): 189 ± 52.5 µM
"CC(O)C1NC(=O)C(Cc2ccccc2)NC1=O (centres unmarked) [Cyclo(Thr-Phe), reference compound]",> 300,–,–
"C[C@@H](O)[C@@H]1NC(=O)[C@H](Cc2ccc(O)cc2)NC1=O [Cyclo(Thr-Tyr), cyclothreonyltyrosine]",–,1000 µM,Inhibition Rate (%) at Concentration of 100 μM (xanthine oxidase (XO)): 2.6%; solubility in water (in words) (Solubility in water): high solubility in water
"O=C1NC(Cc2c[nH]c3ccccc23)C(=O)NC1Cc1ccccc1 (centres unmarked) [Cyclo(Trp-Phe), reference compound]",> 100,–,–
"O=C1N[C@@H](Cc2ccc(O)cc2)C(=O)N[C@H]1Cc1ccc(O)cc1 [Cyclo(Tyr-Tyr), cyclotyrosyltyrosine]",–,insoluble,IC50 (xanthine oxidase (XO); [2]): 29.5 ± 2.9 µM; action of inhibiting a xanthine oxidase (in words) (xanthine oxidase (XO)): high action of inhibiting a xanthine oxidase
"CC(C)C1NC(=O)C(Cc2ccccc2)NC1=O (centres unmarked) [Cyclo(Val-Phe), reference compound]",60.5 ± 2.4,–,–
"CC(C)C1NC(=O)C(Cc2ccc(O)cc2)NC1=O (centres unmarked) [Cyclo(Val-Tyr), cyclovalyltyrosine]",–,insoluble,IC50 (xanthine oxidase (XO); [2]): 79.4 ± 16.1 µM
cycloleucyltyrosine [Cyclo(Leu-Tyr)],–,insoluble,IC50 (xanthine oxidase (XO); [2]): 23.8 ± 5.3 µM; action of inhibiting a xanthine oxidase (in words) (xanthine oxidase (XO)): high action of inhibiting a xanthine oxidase
cyclotryptophanyltyrosine [Cyclo(Trp-Tyr)],–,insoluble,Inhibition Rate (%) at Concentration of 100 μM (xanthine oxidase (XO)): 19.1%

# — patent publication US20170129919A1, “CYCLIC DIPEPTIDE-CONTAINING COMPOSITION” (Suntory Holdings Limited, priority 2014, published 2017)
